Settings in all cases: mouse, in vivo
One test concerns B. anthracis spores. The arrangement: species or system mouse (Balb/c).
The next test relates to B. anthracis. The arrangement: species or system mouse (Balb/c).
A further test has as its system E. coli strain TVDL-rat. The arrangement: species or system mice.

“And” between values parts separate entries of the source, which are not always exact repeats. Equal entries are not always repeated.

In the case of “poly-(1,6)-β-D-glucopyranosyl (1,3)β-D-glucopyranose [PGG]”, in the test on B. anthracis spores, the mean survival time is 10.2 days and 11.5 days; the “number of survivors out of 22 mice” value is given as 19; the percent survivors amounted to 86.36%; the “survival, data pooled from the two experiments” value stood at 10.86 days. Also, in the test with B. anthracis, the bacteria-free animals came out at 86.4% and the “bacterial load in lung of surviving animals” value is reported as 2.6×10^5 CFU/g lung. Also, the survival rate in the test on E. coli strain TVDL-rat was 90% and 75% and 70%.

The values above are taken from patent US8865679B2 (priority 2001, dated 2014).
